Some test systems named below: RPMI-8226 leukemia; DU-145 prostate; RXF 393 renal; SK-OV-3 ovarian; U251 CNS; BT-549 breast; HCC-2998 colon; COLO 205 colon; 786-0 renal; MDA-MB-231 breast; NCI-H460 lung.
Experiment in all cases: inhibition of tumour cell growth, NCI panel, 48 h

Several values for one entry are separate records, joined by “and”; a condition that tells them apart may be missing. Equal entries are not always repeated.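 Grown in 96-well plates, cells were treated for 48 hours with each compound at five concentrations. Insufficient inhibition: endpoint recorded as highest concentration tested. At the GI50, growth is halved. TGI marks complete inhibition of growth.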 Starred links: 1 amine or outer side, 2 acyl side, 3 side chain; linkers in the order of their positions; H or OH if unused. Positions of bridges follow the written chain, without caps; N, C: chain ends. Non-standard residues stand in square brackets, D forms with d. Residues, ends and D or L forms follow the SMILES beside them. Chains are numbered I, II in the order given. Actinocin(9to1) = Cc1c2oc3c(C)ccc(C(=O)[*:1])c3nc-2c(C(=O)[*:2])c(N)c1=O; NMeY = CN[CH](Cc1ccc(O)cc1)C(=O)O; Sar = CNCC(=O)O

Regarding `O=[N+]([O-])c1ccc(CN(CCCl)OCCCl)cc1`, the TGI with RPMI-8226 leukemia, with DU-145 prostate, in the assay on RXF 393 renal, with SK-OV-3 ovarian, in the assay on U251 CNS and in the assay on BT-549 breast was over 100 µM each time. In addition, the TGI in the assay on HCC-2998 colon, in the assay with COLO 205 colon, with 786-0 renal, with MDA-MB-231 breast and in the assay with NCI-H460 lung was over 100 µM throughout.
Take `CC(C)(C)OC(=O)NC1CCCCC1NC(=O)C(=O)NC1CCCCC1NC(=O)OC(C)(C)C` (stereo not drawn): the TGI in the assay with RPMI-8226 leukemia was over 100 µM; in the assay with DU-145 prostate it was over 100 µM; with RXF 393 renal, 38.8 µM; in the assay on SK-OV-3 ovarian, over 100 µM; with U251 CNS, over 100 µM; in the assay on BT-549 breast, over 100 µM. The TGI in the assay with HCC-2998 colon, with COLO 205 colon, in the assay on 786-0 renal, in the assay on MDA-MB-231 breast and in the assay on NCI-H460 lung was over 100 µM each time.
With `COc1cc(OC)c2nc(C)c(CCCl)c(Cl)c2c1`, the TGI in the assay with RPMI-8226 leukemia, in the assay on DU-145 prostate, in the assay with RXF 393 renal, with SK-OV-3 ovarian, with U251 CNS and in the assay on BT-549 breast was over 100 µM each time. In addition, the TGI with HCC-2998 colon, in the assay on COLO 205 colon, in the assay with 786-0 renal, with MDA-MB-231 breast and with NCI-H460 lung was over 100 µM each time.
In the case of `CN(C)c1ccc(/C=c2/c3ccccc3n3c2c2c([n+]3C)CCCC2)cc1`, the TGI came out at 0.656 µM in the assay with RPMI-8226 leukemia; 2.39 µM in the assay with DU-145 prostate; 0.616 µM in the assay on RXF 393 renal; 2.07 µM in the assay with SK-OV-3 ovarian; 2.3 µM in the assay on U251 CNS; 2.19 µM in the assay with BT-549 breast. The TGI in the assay with HCC-2998 colon was 0.375 µM; in the assay on COLO 205 colon, 0.168 µM; in the assay with 786-0 renal it was 3.24 µM; in the assay on MDA-MB-231 breast, 2.79 µM; in the assay with NCI-H460 lung, 0.758 µM.
As to `O=C1C=CC(=O)c2c1ccc1c3ccccc3n(CCCCCn3c4ccccc4c4ccc5c(c43)C(=O)C=CC5=O)c21`, the TGI in the assay on RPMI-8226 leukemia was 18.8 µM; with DU-145 prostate, over 100 µM; with RXF 393 renal, 21.1 µM; in the assay on SK-OV-3 ovarian, over 100 µM; in the assay on U251 CNS, 54 µM; in the assay with BT-549 breast it was 82 µM. For the same compound, the TGI is over 80.8 µM with HCC-2998 colon; 34.9 µM in the assay with COLO 205 colon; 14.3 µM in the assay with 786-0 renal; 46.8 µM with MDA-MB-231 breast; over 100 µM with NCI-H460 lung.
Take `CC1=C(C)CC2C(=O)N(c3cc(C(C)(C)C)ccc3C(C)(C)C)C(=O)C2C1` (stereo not drawn): the TGI in the assay with RPMI-8226 leukemia is over 100 µM; in the assay with DU-145 prostate it was over 100 µM; in the assay on RXF 393 renal it was 74.9 µM; with SK-OV-3 ovarian, over 100 µM; in the assay on U251 CNS, over 100 µM; in the assay with BT-549 breast it was over 100 µM. The TGI in the assay on HCC-2998 colon, with COLO 205 colon, with 786-0 renal, in the assay with MDA-MB-231 breast and in the assay with NCI-H460 lung was over 100 µM in each case.
On to `C=CCc1cccc2cc(C(=O)NCc3ccccc3)c(=N)oc12`, for which the TGI in the assay on RPMI-8226 leukemia, in the assay with DU-145 prostate, in the assay with RXF 393 renal, in the assay on SK-OV-3 ovarian, in the assay on U251 CNS and with BT-549 breast was over 100 µM each time. In addition, the TGI in the assay on HCC-2998 colon was 67.8 µM; in the assay on COLO 205 colon, over 100 µM; in the assay with 786-0 renal, 91.4 µM; in the assay with MDA-MB-231 breast, over 100 µM; in the assay on NCI-H460 lung it was over 100 µM.
For `CN1C(=O)c2ccccc2OC12C=Cc1c(ccc3ccccc13)O2` (stereo not drawn), the TGI is over 71.9 µM with RPMI-8226 leukemia; over 45 µM in the assay with DU-145 prostate; 31.1 µM in the assay with RXF 393 renal; 27.4 µM with SK-OV-3 ovarian; over 34 µM in the assay on U251 CNS; over 56.6 µM with BT-549 breast. Also, the TGI in the assay on HCC-2998 colon was found to be 16 µM; with COLO 205 colon it was 10.8 µM; in the assay on 786-0 renal it was 25.7 µM; with MDA-MB-231 breast, 44.6 µM; in the assay with NCI-H460 lung, 42.5 µM.
Regarding `Cc1c2oc3c(C)ccc(C(=O)NC4C(=O)NC(C(C)C)C(=O)N5CCCC5C(=O)N(C)CC(=O)N(C)C(Cc5ccc(O)cc5)C(=O)OC4C)c3nc-2c(C(=O)NC2C(=O)NC(C(C)C)C(=O)N3CCCC3C(=O)N(C)CC(=O)N(C)C(Cc3ccc(O)cc3)C(=O)OC2C)c(N)c1=O` (stereo not drawn) (I: TVP[Sar][NMeY] / II: TVP[Sar][NMeY]; ester I:1-I:C, II:1-II:C; linker I:N-II:N via Actinocin(9to1); configuration not given here), the TGI in the assay on RPMI-8226 leukemia was 0.926 µM and > 1 µM; in the assay on DU-145 prostate it was over 1 µM; in the assay on RXF 393 renal it was 0.307 µM and 0.0871 µM; in the assay on SK-OV-3 ovarian, over 1 µM; with U251 CNS it was over 1 µM; in the assay on BT-549 breast, 0.213 µM and 0.0733 µM. The TGI is 0.277 µM and 0.169 µM with HCC-2998 colon; 0.216 µM and 0.0889 µM in the assay on COLO 205 colon; over 1 µM with 786-0 renal; over 1 µM with MDA-MB-231 breast; over 1 µM in the assay with NCI-H460 lung. For the same compound, the GI50 was 0.0687 µM and 0.0302 µM with DU-145 prostate; 0.0635 µM and 0.0229 µM with RXF 393 renal; 0.16 µM and 0.075 µM in the assay on SK-OV-3 ovarian; 0.104 µM and 0.0112 µM in the assay on HCC-2998 colon; 0.0175 µM and 0.00568 µM with COLO 205 colon; 0.136 µM and 0.0318 µM in the assay with MDA-MB-231 breast. In addition, the GI50 with NCI-H460 lung is 0.0056 µM and 0.000964 µM.
`BrC1=C(Br)C2(SCCS2)[C@H]2C[C@@H]1c1ccccc12`: the TGI with RPMI-8226 leukemia, in the assay with DU-145 prostate, with RXF 393 renal, with SK-OV-3 ovarian, with U251 CNS and in the assay with BT-549 breast was over 100 µM in each case. Further, the TGI in the assay with HCC-2998 colon was over 89.6 µM; with COLO 205 colon, over 100 µM; in the assay on 786-0 renal, over 100 µM; in the assay with MDA-MB-231 breast, over 100 µM; with NCI-H460 lung it was over 100 µM.
`CCO/C(O)=C(/C(=N)N1CCOCC1)C(=O)Nc1ccc(F)cc1`: the TGI in the assay on RPMI-8226 leukemia, with DU-145 prostate, in the assay with RXF 393 renal, with SK-OV-3 ovarian, with U251 CNS and in the assay on BT-549 breast was over 100 µM each time. Further, the TGI with HCC-2998 colon, with COLO 205 colon, in the assay with 786-0 renal, in the assay on MDA-MB-231 breast and with NCI-H460 lung was over 100 µM each time.

The record behind these values is PubChem BioAssay (NCI).
